Experimental data published in patent US6949542B2, “Dihydro-benzo[b][1,4]diazepin-2-one derivatives” (Hoffman-La Roche Inc., priority 2002, dated 2005).

Row | melting point | SMILES
1 | 215 °C | CCOc1cc2c(cc1C(F)(F)F)NC(=O)CC(c1cccc(-c3ccnc(N4CCCC4)c3)c1)=N2 [Example 390, 7-Ethoxy-4-[3-(2-pyrrolidin-1-yl-pyridin-4-yl)-phenyl]-8-trifluoromethyl-1,3-dihydro-benzo[b][1,4]diazepin-2-one]
2 | 150 °C | O=C1CC(c2cccc(-c3ccnc(CNC4CC4)c3)c2)=Nc2cc(OCC(F)(F)F)c(C(F)(F)F)cc2N1 [Example 379, 4-[3-(2-Cyclopropylaminomethyl-pyridin-4-yl)-phenyl]-7-(2,2,2-trifluoro-ethoxy)-8-trifluoromethyl-1,3-dihydro-benzo[b][1,4]diazepin-2-one]
3 | 198 to 200 °C | Cc1ccncc1-c1cccc(C2=Nc3cc(OCC(F)(F)F)c(C(F)(F)F)cc3NC(=O)C2)c1 [Example 232, 4-[3-(4-Methyl-pyridin-3-yl)-phenyl]-7-(2,2,2-trifluoro-ethoxy)-8-trifluoromethyl-1,3-dihydro-benzo[b][1,4]diazepin-2-one]
4 | 205 °C | Cc1cc2c(cc1C(F)(F)F)NC(=O)CC(c1cccc(-c3ccnc(C(C)C)c3)c1)=N2 [Example 271, 4-[3-(2-Isopropyl-pyridin-4-yl)-phenyl]-7-methyl-8-trifluoromethyl-1,3-dihydro benzo[b][1,4]diazepin-2-one]
5 | 201 °C | O=C1CC(c2cccc(-c3ccnc(CO)c3)c2)=Nc2cc(OCC(F)(F)F)c(C(F)(F)F)cc2N1 [Example 286, 4-[3-(2-Hydroxymethyl-pyridin-4-yl)-phenyl]-7-(2,2,2-trifluoro-ethoxy)-8-trifluoromethyl-1,3-dihydro-benzo[b][1,4]diazepin-2-one]
6 | 220 °C | O=C1CC(c2cccc(-c3ccnc(C(F)(F)F)c3)c2)=Nc2cc(OCC(F)(F)F)c(C(F)(F)F)cc2N1 [Example 268, 7-(2,2,2-Trifluoro-ethoxy)-8-trifluoromethyl-4-[3-(2-trifluoromethyl-pyridin-4-yl)-phenyl]-1,3-dihydro-benzo[b][1,4]diazepin-2-one]
7 | 216 °C | CCCc1cc2c(cc1C(F)(F)F)NC(=O)CC(c1cccc(-c3cc(C)nc(C)c3)c1)=N2 [Example 229, 4-[3-(2,6-Dimethyl-pyridin-4-yl)-phenyl]-7-propyl-8-trifluoromethyl-1,3-dihydro-benzo[b][1,4]diazepin-2-one]
8 | 251 to 252 °C | Cc1cc(-c2cccc(C3=Nc4cc(N5CCOCC5)c(C(F)(F)F)cc4NC(=O)C3)c2)cc(C)n1 [Example 384, 4-[3-(2,6-Dimethyl-pyridin-4-yl)-phenyl]-7-morpholin-4-yl-8-trifluoromethyl-1,3-dihydro-benzo[b][1,4]diazepin-2-one]
9 | 197 °C | O=C1CC(c2cccc(-c3cccnc3)c2)=Nc2cc(OCC3CC3)c(C(F)(F)F)cc2N1 [Example 194, 7-Cyclopropylmethoxy-4-(3-pyridin-3-yl-phenyl)-8-trifluoromethyl-1,3-dihydro-benzo[b][1,4]diazepin-2-one]
10 | 191 °C | CCc1ccc(-c2cccc(C3=Nc4cc(OCC(F)(F)F)c(C(F)(F)F)cc4NC(=O)C3)c2)cn1 [Example 193, 4-[3-(6-Ethyl-pyridin-3-yl)-phenyl]-7-(2,2,2-trifluoro-ethoxy)-8-trifluoromethyl-1,3-dihydro-benzo[b][1,4]diazepin-2-one]
11 | 199 °C | O=C1CC(c2cccc(-c3ccnc(CO)c3)c2)=Nc2cc(Cl)c(C(F)(F)F)cc2N1 [Example 284, 7-Chloro-4-[3-(2-hydroxymethyl-pyridin-4-yl)-phenyl]-8-trifluoromethyl-1,3-dihydro benzo[b][1,4]diazepin-2-one]
12 | 233 to 236 °C | Cc1nnc(-c2cccc(C3=Nc4cc(N(C)C)c(C(F)(F)F)cc4NC(=O)C3)c2)nc1C [Example 343, 7-Dimethylamino-4-[3-(5,6-dimethyl-[1,2,4]triazin-3-yl)-phenyl]-8-trifluoromethyl-1,3-dihydro-benzo[b][1,4]diazepin-2-one]
13 | 199 to 200 °C | CCOc1cc2c(cc1C(F)(F)F)NC(=O)CC(c1cccc(-c3ccnc(N4CCOCC4)c3)c1)=N2 [Example 385, 7-Ethoxy-4-[3-(2-morpholin-4-yl-pyridin-4-yl)-phenyl]-8-trifluoromethyl-1,3-dihydro-benzo[b][1,4]diazepin-2-one]
14 | 244 °C | CCOc1cc2c(cc1C(F)(F)F)NC(=O)CC(c1cccc(-c3ccnc(C4CC4)c3)c1)=N2 [Example 348, 4-[3-(2-Cyclopropyl-pyridin-4-yl)-phenyl]-7-ethoxy-8-trifluoromethyl-1,3-dihydro-benzo[b][1,4]diazepin-2-one]
15 | 224 to 225 °C | N#Cc1cc(-c2cccc(C3=Nc4cc(OCC(F)(F)F)c(Cl)cc4NC(=O)C3)c2)ccn1 [Example 203, 4-{3-[7-Chloro-4-oxo-8-(2,2,2-trifluoro-ethoxy)-4,5-dihydro-3H-benzo[b][1,4]diazepin-2-yl]-phenyl}-pyridine-2-carbonitrile]
16 | 197 °C | O=C1CC(c2ccnc(-c3cccnc3)c2)=Nc2cc(OCC(F)(F)F)c(C(F)(F)F)cc2N1 [Example 394, 4-[2,3′]Bipyridinyl-4-yl-7-(2,2,2-trifluoro-ethoxy)-8-trifluoromethyl-1,3-dihydro-benzo[b][1,4]diazepin-2-one]
17 | 201 to 205 °C | Cc1cc2c(cc1C(F)(F)F)NC(=O)CC(c1cccc(-c3cc(N)ncn3)c1)=N2 [Example 328, 4-[3-(6-Amino-pyrimidin-4-yl)-phenyl]-7-methyl-8-trifluoromethyl-1,3-dihydro-benzo[b][1,4]diazepin-2-one]
18 | 224 to 226 °C | Cc1cc2c(cc1C(F)(F)F)NC(=O)CC(c1ccnc(-c3ccncc3)c1)=N2 [Example 292, 4-[2,4′]Bipyridinyl-4-yl-7-methyl-8-trifluoromethyl-1,3-dihydro-benzo[b][1,4]diazepin-2-one]
19 | 220 °C | Cc1cc(-c2cccc(C3=Nc4cc(C(F)(F)F)c(C(F)(F)F)cc4NC(=O)C3)c2)cc(C)n1 [Example 415, 4-[3-(2,6-Dimethyl-pyridin-4-yl)-phenyl]-7,8-bis-trifluoromethyl-1,3-dihydro-benzo[b][1,4]diazepin-2-one]

Continued, molecule first:

Row | SMILES | melting point
20 | COc1ccc(-c2cccc(C3=Nc4ccc(C(F)(F)F)cc4NC(=O)C3)c2)cn1 [Example 50, 4-[3-(6-Methoxy-pyridin-3-yl)-phenyl]-8-trifluoromethyl-1,3-dihydro-benzo[b][1,4]diazepin-2-one] | 210 to 215 °C
21 | CCOc1cc2c(cc1C(F)(F)F)NC(=O)CC(c1cccc(-c3ccnc(C)c3C)c1)=N2 [Example 146, 4-[3-(2,3-Dimethyl-pyridin-4-yl)-phenyl]-7-ethoxy-8-trifluoromethyl-1,3-dihydro-benzo[b][1,4]diazepin-2-one] | 217 °C
22 | CN(C)c1cc2c(cc1C(F)(F)F)NC(=O)CC(c1cccc(-c3ccccn3)c1)=N2 [Example 6, 7-Dimethylamino-4-(3-pyridin-2-yl-phenyl)-8-trifluoromethyl-1,3-dihydro-benzo[b][1,4]diazepin-2-one] | 201 °C
23 | O=C1CC(c2cccc(-c3ccccn3)c2)=Nc2ccc(C(F)(F)F)cc2N1 [Example 33, 4-(3-Pyridin-2-yl-phenyl)-8-trifluoromethyl-1,3-dihydro-benzo[b][1,4]diazepin-2-one] | 226 to 227 °C
24 | O=C1CC(c2cccc(-c3cnccn3)c2)=Nc2cc(Cl)c(C(F)(F)F)cc2N1 [Example 91, 7-Chloro-4-(3-pyrazin-2-yl-phenyl)-8-trifluoromethyl-1,3-dihydro-benzo[b][1,4]diazepin-2-one] | 235 °C
25 | Cc1ccc(-c2cccc(C3=Nc4cc(F)c(Cl)cc4NC(=O)C3)c2)cn1 [Example 23, 8-Chloro-7-fluoro-4-[3-(6-methyl-pyridin-3-yl)-phenyl]-1,3-dihydro-benzo[b][1,4]diazepin-2-one] | 215 to 220 °C
26 | Cc1cc2c(cc1C(F)(F)F)NC(=O)CC(c1cccc(-c3ccc(C(C)C)nc3)c1)=N2 [Example 180, 4-[3-(6-Isopropyl-pyridin-3-yl)-phenyl]-7-methyl-8-trifluoromethyl-1,3-dihydro-benzo[b][1,4]diazepin-2-one] | 199 °C
27 | O=C1CC(c2cccc(-c3cccnc3)c2)=Nc2cc(Cl)c(C(F)(F)F)cc2N1 [Example 183, 7-Chloro-4-(3-pyridin-3-yl-phenyl)-8-trifluoromethyl-1,3-dihydro-benzo[b][1,4]diazepin-2-one] | 226 to 227 °C
28 | Cc1cc2c(cc1C(F)(F)F)N=C(c1cccc(-c3cncnc3)c1)CC(=O)N2 [Example 106, 8-Methyl-4-(3-pyrimidin-5-yl-phenyl)-7-trifluoromethyl-1,3-dihydro-benzo[b][1,4]diazepin-2-one] | 238 °C
29 | CCCN(C)c1cc2c(cc1C(F)(F)F)NC(=O)CC(c1cccc(-c3cncnc3)c1)=N2 [Example 99, 7-(Methyl-propyl-amino)-4-(3-pyrimidin-5-yl-phenyl)-8-trifluoromethyl-1,3-dihydro-benzo[b][1,4]diazepin-2-one] | 197 °C
30 | O=C1CC(c2cccc(-c3cccnc3)c2)=Nc2ccc(F)cc2N1 [Example 7, 8-Fluoro-4-(3-pyridin-3-yl-phenyl)-1,3-dihydro-benzo[b][1,4]diazepin-2-one] | 210 °C
31 | Cc1nccc(-c2cccc(C3=Nc4cc(Cl)c(Cl)cc4NC(=O)C3)c2)c1C [Example 144, 7,8-Dichloro-4-[3-(2,3-dimethyl-pyridin-4-yl)-phenyl]-1,3-dihydro-benzo[b][1,4]diazepin-2-one] | 219 °C
32 | CCCN(C)c1cc2c(cc1C(F)(F)F)NC(=O)CC(c1cccc(-c3ccncc3)c1)=N2 [Example 81, 7-(Methyl-propyl-amino)-4-(3-pyridin-4-yl-phenyl)-8-trifluoromethyl-1,3-dihydro-benzo[b][1,4]diazepin-2-one] | 192 °C
33 | COc1ccc(-c2cccc(C3=Nc4cc(C)c(C(F)(F)F)cc4NC(=O)C3)c2)cn1 [Example 168, 4-[3-(6-Methoxy-pyridin-3-yl)-phenyl]-7-methyl-8-trifluoromethyl-1,3-dihydro-benzo[b][1,4]diazepin-2-one] | 219 to 224 °C
